The source of these data is ChEMBL document CHEMBL1201862, “PubChem BioAssay data set” (2004).

SMILES strings stand for the structures.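 Assay format: 96-well plates, 48-hour exposure. GI50 = concentration required for 50% inhibition of growth.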 Calls of active or inactive are those of the source. Cut-off read from the data, not from the text of the source: active = GI50 up to about 1.1 µM and inactive = higher.

Test systems include SR; SW-620; HCC 2998; SK-OV-3; A549; HCT-116; SK-MEL-5; UACC-62; 786-0; ACHN; NCI-H23; HOP-62; M14; OVCAR-5; OVCAR-4; RPMI-8226; NCI-H522.
Common to all, as to assay: growth of human tumour cells (NCI), 48 h

Regarding `CCOC(=O)NC(=O)c1cn(CCN2CCN(C(=O)CCCCCCCCCCNc3ncnc4c3ncn4C3OC(CO)C(O)C3O)CC2)c(=O)[nH]c1=O` (stereo not given), the GI50 with SR, in the experiment with SW-620, with HCC 2998, in the experiment with SK-OV-3, in the experiment with A549 and in the experiment on HCT-116 was > 100 µM (inactive) in each case. Besides, the GI50 with SK-MEL-5, in the experiment on UACC-62, with 786-0, in the experiment with ACHN, in the experiment on NCI-H23 and with HOP-62 was > 100 µM (inactive) each time. Further, in the experiment with M14, the GI50 is > 100 µM (inactive).

Regarding `OCCCCn1cnc2c(O)ncnc21`, the GI50 with SR, with SW-620, in the experiment with HCC 2998, in the experiment with A549, with HCT-116 and in the experiment on SK-MEL-5 was > 100 µM (inactive) throughout. The GI50 in the experiment on OVCAR-5, with OVCAR-4, in the experiment with UACC-62, with 786-0, in the experiment with ACHN and in the experiment on RPMI-8226 was > 100 µM (inactive) throughout. The GI50 in the experiment on NCI-H23, in the experiment with HOP-62 and in the experiment on M14 was > 100 µM (inactive) throughout.

With `CC(=O)NNc1nc(C)c(C(/C=C/c2ccc(Cl)cc2)=N/NC(=S)NN)s1`, the GI50 with SR, in the experiment with SW-620, with SK-OV-3, in the experiment with A549, in the experiment on HCT-116 and in the experiment on SK-MEL-5 was > 100 µM (inactive) in each case. Besides, the GI50 in the experiment with OVCAR-5, with NCI-H522, with OVCAR-4, in the experiment with UACC-62, with 786-0 and in the experiment with ACHN was > 100 µM (inactive) in each case. Also, the GI50 in the experiment with RPMI-8226, in the experiment on NCI-H23, in the experiment with HOP-62 and in the experiment on M14 was > 100 µM (inactive) in each case.

In the case of `CCOC(=O)C(/C(=N/NC(=O)OC)C(=O)Nc1ccc(C(C)=O)cc1)c1cnc2ccccc2n1` (stereo not given), the GI50 with SR, in the experiment with SW-620, in the experiment on HCC 2998, in the experiment with SK-OV-3, with A549 and in the experiment with HCT-116 was > 100 µM (inactive) throughout. Also, the GI50 in the experiment on SK-MEL-5, in the experiment on OVCAR-5, in the experiment with NCI-H522, with OVCAR-4, in the experiment with UACC-62 and in the experiment with 786-0 was > 100 µM (inactive) throughout. For the same compound, the GI50 with ACHN, in the experiment with NCI-H23, in the experiment with HOP-62 and in the experiment on M14 was > 100 µM (inactive) each time.

Consider `CC(C)=CC(=O)Cc1nc2cc(C)c(C)cc2[nH]c1=O`, for which the GI50 in the experiment on SR, in the experiment with SW-620, in the experiment with HCC 2998, in the experiment with SK-OV-3, with A549 and in the experiment on HCT-116 was > 100 µM (inactive) each time. The GI50 with SK-MEL-5 is > 100 µM (inactive); with OVCAR-5 it was > 100 µM (inactive); in the experiment on OVCAR-4, 87.1 µM (inactive); in the experiment with UACC-62, > 100 µM (inactive); in the experiment on 786-0, > 100 µM (inactive); in the experiment on ACHN it was > 100 µM (inactive). Besides, the GI50 in the experiment with RPMI-8226 was > 100 µM (inactive); in the experiment on NCI-H23 it was > 100 µM (inactive); in the experiment with HOP-62, 17.9 µM (inactive); in the experiment with M14, > 100 µM (inactive).

`BrC12c3ccccc3Sc3ccccc3C1(Br)c1ccccc12` (stereo not given): the GI50 in the experiment on SR was 11.1 µM (inactive); with SW-620, 36.2 µM (inactive); in the experiment with HCC 2998 it was 28.8 µM (inactive); in the experiment on SK-OV-3, 42.1 µM (inactive); in the experiment on A549 it was 27.7 µM (inactive); in the experiment on HCT-116, 22 µM (inactive). Also, the GI50 was 16.2 µM (inactive) in the experiment on SK-MEL-5; 25.5 µM (inactive) with OVCAR-5; 17.5 µM (inactive) in the experiment on NCI-H522; 33.1 µM (inactive) in the experiment on OVCAR-4; 16.7 µM (inactive) with UACC-62; 34.5 µM (inactive) in the experiment on 786-0. For the same compound, the GI50 is 24.2 µM (inactive) in the experiment on ACHN, 13.5 µM (inactive) in the experiment with RPMI-8226, 19.5 µM (inactive) in the experiment on HOP-62 and 15.2 µM (inactive) with M14.

`O=c1c2cccc3cccc(c4n1CCCN=4)c32`: the GI50 with SR is 31.3 µM (inactive); in the experiment on SW-620, 92.5 µM (inactive); in the experiment on SK-OV-3, > 100 µM (inactive); in the experiment on A549, > 100 µM (inactive); in the experiment on HCT-116, 31 µM (inactive); with SK-MEL-5, > 100 µM (inactive). The GI50 with OVCAR-5 was 88.1 µM (inactive); in the experiment with NCI-H522, > 100 µM (inactive); in the experiment with OVCAR-4, > 100 µM (inactive); in the experiment with UACC-62, > 100 µM (inactive); with 786-0 it was > 100 µM (inactive); with ACHN, > 100 µM (inactive). In addition, the GI50 in the experiment on RPMI-8226, with NCI-H23, in the experiment on HOP-62 and with M14 was > 100 µM (inactive) each time.

Regarding `COc1ccc([C@@H]2CC(=O)N2)cc1`, the GI50 in the experiment with SR, with SK-OV-3, in the experiment with A549, in the experiment with HCT-116, with SK-MEL-5 and in the experiment with OVCAR-5 was > 100 µM (inactive) each time. The GI50 with NCI-H522, in the experiment with OVCAR-4, with UACC-62, with 786-0, with ACHN and with RPMI-8226 was > 100 µM (inactive) each time. Also, the GI50 in the experiment on NCI-H23, in the experiment on HOP-62 and with M14 was > 100 µM (inactive) each time.

`CC(=O)C1=CSC2[C@H](NC(=O)Cc3ccccc3)C(=O)N2C1C(=O)OC(c1ccccc1)c1ccccc1` (stereo not given in full): the GI50 in the experiment with SR is 36.7 µM (inactive); in the experiment with SW-620 it was 93.5 µM (inactive); in the experiment with HCC 2998 it was > 100 µM (inactive); in the experiment on SK-OV-3, > 100 µM (inactive); in the experiment with A549 it was 91.8 µM (inactive); in the experiment with HCT-116, > 100 µM (inactive). Besides, the GI50 in the experiment on SK-MEL-5 is 65.6 µM (inactive); in the experiment with NCI-H522, > 100 µM (inactive); in the experiment with OVCAR-4, > 100 µM (inactive); in the experiment with UACC-62, 30.1 µM (inactive); in the experiment on 786-0 it was 60.5 µM (inactive); in the experiment on RPMI-8226 it was 39.5 µM (inactive). Moreover, the GI50 in the experiment on NCI-H23 was 51.6 µM (inactive); in the experiment with HOP-62 it was 58.6 µM (inactive); in the experiment with M14, > 100 µM (inactive).

With `CC(=O)OC1CCCn2c1nc1c2C(=O)C(C)=C(N2CC2)C1=O` (stereo not given), the GI50 in the experiment on SR was 18.1 µM (inactive); with SW-620, 0.167 µM (active); in the experiment with HCC 2998, 0.232 µM (active); in the experiment with SK-OV-3, 0.364 µM (active); in the experiment with A549, 0.316 µM (active); with HCT-116 it was 0.409 µM (active). In addition, the GI50 is 0.185 µM (active) with SK-MEL-5; 0.356 µM (active) with OVCAR-5; 0.156 µM (active) in the experiment with NCI-H522; 0.773 µM (active) with OVCAR-4; 0.301 µM (active) with UACC-62; 0.222 µM (active) in the experiment on 786-0. In addition, the GI50 in the experiment on ACHN is 0.254 µM (active); in the experiment on RPMI-8226, 1.07 µM (active); in the experiment on NCI-H23, 0.0923 µM (active); in the experiment on HOP-62, 0.216 µM (active); in the experiment on M14, 0.163 µM (active).

For `CN(C)/N=N/c1ccc(C(N)=O)cc1`, the GI50 in the experiment with SR, in the experiment on SW-620, with HCC 2998, in the experiment on SK-OV-3, in the experiment on A549 and in the experiment on HCT-116 was > 100 µM (inactive) each time. In addition, the GI50 in the experiment with SK-MEL-5, with OVCAR-5, in the experiment on NCI-H522, in the experiment on OVCAR-4, in the experiment on UACC-62 and in the experiment on 786-0 was > 100 µM (inactive) throughout. The GI50 in the experiment with ACHN, in the experiment on RPMI-8226, in the experiment on NCI-H23, in the experiment on HOP-62 and with M14 was > 100 µM (inactive) in each case.

For `Cc1ccc(C2=C(c3ccccc3)C(=O)C(c3ccccc3)=C2c2ccc(C)cc2)cc1`, the GI50 is 58.5 µM (inactive) in the experiment on SR; 37.9 µM (inactive) in the experiment with SW-620; > 100 µM (inactive) with HCC 2998; > 100 µM (inactive) in the experiment with SK-OV-3; 43.7 µM (inactive) in the experiment on A549; 31.4 µM (inactive) with HCT-116. Moreover, the GI50 in the experiment with SK-MEL-5 was 55.1 µM (inactive); in the experiment with OVCAR-5, > 100 µM (inactive); with NCI-H522, 72.9 µM (inactive); in the experiment with 786-0, 34.8 µM (inactive); in the experiment on ACHN it was 32.3 µM (inactive); in the experiment on RPMI-8226, 29.1 µM (inactive). Also, the GI50 was 31.1 µM (inactive) in the experiment on NCI-H23, > 100 µM (inactive) in the experiment on HOP-62 and > 100 µM (inactive) with M14.

With `COC(=O)c1cc(C)c(C)c2c1NC(=O)CNC2=O`, the GI50 in the experiment on SR, in the experiment with SW-620, in the experiment on HCC 2998, in the experiment on A549, in the experiment on HCT-116 and in the experiment with OVCAR-4 was > 100 µM (inactive) each time. The GI50 in the experiment on UACC-62, with 786-0, in the experiment on ACHN, in the experiment on RPMI-8226, in the experiment with NCI-H23 and in the experiment with HOP-62 was > 100 µM (inactive) throughout. The GI50 in the experiment on M14 is > 100 µM (inactive).
